{"source": "patent US6444217B1", "about": "“Drug delivery devices, and methods of use” (University of Washington, priority 2000, dated 2002)", "system": "3T3-L1 adipocyte cells", "assay": "ability of released insulin to regulate 14C-deoxyglucose uptake", "assay_type": "cell-based", "details": "14C-deoxyglucose uptake by cultured 3T3-L1 adipocyte cells", "data": [{"substance": "insulin", "values": [{"measurement": "biological activity of released insulin", "value": "retains its biological activity"}]}]}
